According to PubChem BioAssay AID248 (DTP/NCI, 2004):
Toxic doses and inconclusive results are not listed. Cut-off read from the data, not from the text of the source: active = T/C of 150% or more; inactive = T/C below 125%.

System: L1210 leukemia ip in BDF1 mice, survival T/C
Assay: NCI In Vivo Anticancer Drug Screen. Data for tumor model L1210 Leukemia (intraperitoneal) in B6D2F1 (BDF1) mice
Conditions: endpoint: mean survival time, higher = longer survival
Method in brief: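 Transplantable tumor model; survival measured in treated vs vehicle control mice. Value = treated/control.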

[1] = dose: 100.0 mg/kg/injection, schedule: Q01DX001 (ip), vehicle: carboxymethylcellulose (CMC)
[2] = dose: 200.0 mg/kg/injection, schedule: Q01DX001 (ip), vehicle: carboxymethylcellulose (CMC)
[3] = dose: 400.0 mg/kg/injection, schedule: Q01DX001 (ip), vehicle: carboxymethylcellulose (CMC)
[4] = dose: 100.0 mg/kg/injection, schedule: Q04DX002 (ip), vehicle: Klucel (hydroxypropylcellulose) (HPC)
[5] = dose: 200.0 mg/kg/injection, schedule: Q04DX002 (ip), vehicle: Klucel (hydroxypropylcellulose) (HPC)
[6] = dose: 400.0 mg/kg/injection, schedule: Q04DX002 (ip), vehicle: Klucel (hydroxypropylcellulose) (HPC)
[7] = dose: 100.0 mg/kg/injection, schedule: Q01DX009 (ip), vehicle: saline with Tween-80
[8] = dose: 400.0 mg/kg/injection, schedule: Q01DX009 (ip), vehicle: saline with Tween-80
[9] = dose: 50.0 mg/kg/injection, schedule: Q01DX009 (ip), vehicle: Klucel (hydroxypropylcellulose) (HPC)
[10] = dose: 100.0 mg/kg/injection, schedule: Q01DX009 (ip), vehicle: Klucel (hydroxypropylcellulose) (HPC)
[11] = dose: 200.0 mg/kg/injection, schedule: Q01DX009 (ip), vehicle: Klucel (hydroxypropylcellulose) (HPC)
[12] = dose: 200.0 mg/kg/injection, schedule: Q01DX009 (ip), vehicle: saline with Tween-80
[13] = dose: 100.0 mg/kg/injection, schedule: Q01DX001 (ip), vehicle: saline
[14] = dose: 200.0 mg/kg/injection, schedule: Q01DX001 (ip), vehicle: saline
[15] = dose: 400.0 mg/kg/injection, schedule: Q01DX001 (ip), vehicle: saline
[16] = dose: 100.0 mg/kg/injection, schedule: Q01DX001 (ip), vehicle: saline with Tween-80
[17] = dose: 200.0 mg/kg/injection, schedule: Q01DX001 (ip), vehicle: saline with Tween-80
[18] = dose: 100.0 mg/kg/injection, schedule: Q04DX003 (ip), vehicle: saline with Tween-80
[19] = dose: 200.0 mg/kg/injection, schedule: Q04DX003 (ip), vehicle: saline with Tween-80
[20] = dose: 400.0 mg/kg/injection, schedule: Q04DX003 (ip), vehicle: saline with Tween-80
[21] = dose: 100.0 mg/kg/injection, schedule: Q04DX003 (ip), vehicle: Klucel (hydroxypropylcellulose) (HPC)
[22] = dose: 200.0 mg/kg/injection, schedule: Q04DX003 (ip), vehicle: Klucel (hydroxypropylcellulose) (HPC)

Measured: T/C

O=C1c2cc([N+](=O)[O-])ccc2-c2cc(Cl)c([N+](=O)[O-])cc21
inactive: dose: 50.0 mg/kg/injection, schedule: Q01DX001 (ip), vehicle: carboxymethylcellulose (CMC) 102 % of control | [1] 91 % of control | [2] 91 % of control | [3] 93 % of control

CC(C)(C)C1CCC(C(N)=O)CC1 (stereo not given)
inactive: [4] 103 % of control | [5] 107 % of control | [6] 103 % of control

CC(=O)Nc1cc(C)cc(NC(C)=O)c1C
inactive: dose: 75.0 mg/kg/injection, schedule: Q01DX001 (ip), vehicle: carboxymethylcellulose (CMC) 94 % of control | dose: 300.0 mg/kg/injection, schedule: Q01DX001 (ip), vehicle: carboxymethylcellulose (CMC) 90 % of control

CCCC/C=C/CCCC
inactive: dose: 75.0 mg/kg/injection, schedule: Q01DX009 (ip), vehicle: saline 100 % of control | dose: 300.0 mg/kg/injection, schedule: Q01DX009 (ip), vehicle: saline 86 % of control

Cc1cc(C)c(O)c(C)c1C
inactive: [7] 104 % of control | [8] 95 % of control

CCCCN(C)/N=N/c1nc[nH]c1C#N
inactive: dose: 75.0 mg/kg/injection, schedule: Q01DX001 (ip), vehicle: other 105 % of control | dose: 75.0 mg/kg/injection, schedule: Q01DX009 (ip), vehicle: saline with Tween-80 103 % of control | dose: 75.0 mg/kg/injection, schedule: Q04DX003 (ip), vehicle: saline with Tween-80 105 % of control | dose: 150.0 mg/kg/injection, schedule: Q01DX001 (ip), vehicle: other 102 % of control | dose: 150.0 mg/kg/injection, schedule: Q01DX009 (ip), vehicle: saline with Tween-80 105 % of control | dose: 150.0 mg/kg/injection, schedule: Q04DX003 (ip), vehicle: saline with Tween-80 96 % of control | dose: 300.0 mg/kg/injection, schedule: Q01DX001 (ip), vehicle: other 101 % of control | dose: 300.0 mg/kg/injection, schedule: Q01DX009 (ip), vehicle: saline with Tween-80 109 % of control | dose: 300.0 mg/kg/injection, schedule: Q04DX003 (ip), vehicle: saline with Tween-80 96 % of control

CCOC(=O)CC(=O)C(F)(F)F.CCOC(=O)CC(=O)C(F)(F)F.[Ni]
inactive: dose: 5.0 mg/kg/injection, schedule: Q01DX001 (ip), vehicle: saline 96 % of control | dose: 10.0 mg/kg/injection, schedule: Q01DX001 (ip), vehicle: saline 98 % of control | dose: 20.0 mg/kg/injection, schedule: Q01DX001 (ip), vehicle: saline 102 % of control | dose: 40.0 mg/kg/injection, schedule: Q01DX001 (ip), vehicle: saline 106 % of control

Cc1nn(C)c(N)c1N=O
inactive: [9] 102 % of control | [10] 98 % of control | [11] 102 % of control

CC(C)COC(c1ccc2c(c1)OCO2)C(C)Br (stereo not given)
inactive: dose: 100.0 mg/kg/injection, schedule: Q04DX002 (ip), vehicle: saline with Tween-80 96 % of control | dose: 200.0 mg/kg/injection, schedule: Q04DX002 (ip), vehicle: saline with Tween-80 101 % of control | dose: 400.0 mg/kg/injection, schedule: Q04DX002 (ip), vehicle: saline with Tween-80 107 % of control

CNc1ccccc1C(=O)N/N=C/c1ccccc1Cl
inactive: [4] 108 % of control | [5] 93 % of control | [6] 86 % of control

O=C(/C=C/c1ccccc1)N1CCCCC1
inactive: [7] 93 % of control | [4] 108 % of control | [12] 95 % of control | [5] 101 % of control | [8] 102 % of control

CC(C)CCCC(C)C1CCC2C3CCC4CC(O)CCC4(C)C3CCC12C (stereo not given)
inactive: dose: 100.0 mg/kg/injection, schedule: Q01DX001 (sc), vehicle: steriod suspending solution 109 % of control | dose: 200.0 mg/kg/injection, schedule: Q01DX001 (sc), vehicle: steriod suspending solution 109 % of control | dose: 400.0 mg/kg/injection, schedule: Q01DX001 (sc), vehicle: steriod suspending solution 100 % of control

O=C(Nc1coc2ccc(Cl)cc12)C1CC1
inactive: [7] 86 % of control | [12] 99 % of control

CCCCCCCCCCCCCCCCCC[n+]1ccccc1
inactive: dose: 0.09 mg/kg/injection, schedule: Q01DX009 (ip), vehicle: saline with Tween-80 89 % of control | dose: 0.19 mg/kg/injection, schedule: Q01DX009 (ip), vehicle: saline with Tween-80 99 % of control | dose: 0.39 mg/kg/injection, schedule: Q01DX009 (ip), vehicle: saline with Tween-80 96 % of control

COC(=S)S
inactive: [13] 108 % of control | [14] 108 % of control | [15] 105 % of control

CCCCCCCCCC/C=N/Nc1ccc([N+](=O)[O-])cc1[N+](=O)[O-]
inactive: dose: 50.0 mg/kg/injection, schedule: Q01DX001 (ip), vehicle: saline with Tween-80 93 % of control | [16] 92 % of control | [17] 93 % of control

CN1c2ccc(Br)c[c]2[Sn]2([c]3cc(Br)ccc31)[c]1cc(Br)ccc1N(C)c1ccc(Br)c[c]12
inactive: dose: 100.0 mg/kg/injection, schedule: Q01DX001 (ip), vehicle: steriod suspending solution 104 % of control | dose: 200.0 mg/kg/injection, schedule: Q01DX001 (ip), vehicle: steriod suspending solution 107 % of control | dose: 400.0 mg/kg/injection, schedule: Q01DX001 (ip), vehicle: steriod suspending solution 109 % of control

CCCCCCCCCCCCNC(=O)c1ccc[n+](Cc2ccccc2)c1
inactive: dose: 5.0 mg/kg/injection, schedule: Q01DX009 (ip), vehicle: saline 102 % of control | dose: 5.0 mg/kg/injection, schedule: Q04DX003 (ip), vehicle: saline sonified 101 % of control | dose: 10.0 mg/kg/injection, schedule: Q01DX009 (ip), vehicle: saline 98 % of control | dose: 10.0 mg/kg/injection, schedule: Q04DX003 (ip), vehicle: saline sonified 106 % of control

C/C(=C\Cl)COC(C)(C)C
inactive: [16] 94 % of control | [17] 94 % of control

NNC(=O)c1cc(Cl)ccn1
inactive: [18] 96 % of control | [19] 102 % of control | [20] 98 % of control

CC1(C)N(C(=S)Nc2ccccc2)C1(C)C
inactive: [9] 106 % of control | dose: 50.0 mg/kg/injection, schedule: Q04DX003 (ip), vehicle: Klucel (hydroxypropylcellulose) (HPC) 92 % of control | [10] 95 % of control | [21] 103 % of control | [11] 92 % of control | [22] 102 % of control

Cc1ncccc1CCO
inactive: [13] 96 % of control | [14] 100 % of control | [15] 102 % of control

CC1C(C)(C)C1(F)Cl (stereo not given)
inactive: [1] 95 % of control | [2] 103 % of control | [3] 108 % of control

CC(C)Nc1ccc(C(=O)O)cc1
inactive: dose: 100.0 mg/kg/injection, schedule: Q01DX001 (ip), vehicle: Klucel (hydroxypropylcellulose) (HPC) 100 % of control | [21] 98 % of control | dose: 200.0 mg/kg/injection, schedule: Q01DX001 (ip), vehicle: Klucel (hydroxypropylcellulose) (HPC) 91 % of control | [22] 100 % of control | dose: 400.0 mg/kg/injection, schedule: Q01DX001 (ip), vehicle: Klucel (hydroxypropylcellulose) (HPC) 102 % of control | dose: 400.0 mg/kg/injection, schedule: Q04DX003 (ip), vehicle: Klucel (hydroxypropylcellulose) (HPC) 100 % of control

OC(c1ccc(C2CC2)cc1)(c1ccc(C2CC2)cc1)c1ccc(C2CC2)cc1
inactive: [18] 104 % of control | [19] 102 % of control | [20] 91 % of control

Cn1nnnc1CCO
inactive: dose: 100.0 mg/kg/injection, schedule: Q01DX001 (ip), vehicle: acetone 94 % of control | dose: 200.0 mg/kg/injection, schedule: Q01DX001 (ip), vehicle: acetone 97 % of control | dose: 400.0 mg/kg/injection, schedule: Q01DX001 (ip), vehicle: acetone 97 % of control
